# Data from EP3434287B1, “SHORT AND ULTRA-SHORT ANTIMICROBIAL LIPOPEPTIDES AND USE THEREOF” (Arta Peptidion S.r.l.s., priority 2017, dated 2019).
# “And” between values parts separate entries of the source, which are not always exact repeats. Equal values may be shown once. Read-outs that look alike come from different tables or passages of the source. Residues, ends and D or L forms follow the SMILES beside them. *: point of attachment. Myristoyl = CCCCCCCCCCCCCC(=O)*; Lauroyl = CCCCCCCCCCCC(=O)*; Octanoyl = CCCCCCCC(=O)*; Hexanoyl = CCCCCC(=O)*
# Experiments:
# S.aureus = assay type: cell-based, S. aureus (ATCC 25923)
# Method: (§1) The antimicrobial activity of a lipopeptide can be determined using a method known in the art, for example, the broth-dilution method. Essentially, this method involves the growth of a microorganism in a liquid medium until it reaches the logarithmic phase. The test lipopeptide is serially diluted with growth medium for the test bacterium in the wells of a multiwell plate. An optimal concentration of the microorganism is added to the wells containing the serially diluted lipopeptide. The plate is incubated in a thermostat at a temperature of 37° C. for a time sufficient for the microorganism to grow. The growth of the microorganism, evaluated in comparison with a negative control (microorganism grown in the absence of the lipopeptide), is determined by detecting the absorbance of the solution containing the bacterium, for example, at 605 nm.
# (§2) The minimum inhibitory concentration values (MICs) of the lipopeptides and of conventional antibiotics were determined by the broth microdilution susceptibility test following the guidelines of the NCCLS with mid-log phase cultures. Serial two-fold dilutions of each peptide were prepared (final volume of 50 ul) in 96-well polypropylene microtiter plates (UNIFO, Treviso, Italy) with MH broth for bacteria and RPMI-1640 for fungi. Each dilution series included con-trol wells without peptide. A total of 50 ul of the adjusted inoculum (approximately 5 × 10^5 cells/ml for bacteria or 5 × 10^4 cells/ml for fungi, in the appropriate medium) was added to each well. To evaluate the MIC, microtiter plates with bacteria were incubated at 37° C overnight, while those with fungi were incubated at 30° C for 48 h. The fatty acid tested were: C6 (hexanoic),C8 (octanoic),C10 (decanoic),C12 (lauric),C14 (mystiric).
# as §2, with “h.” for “h. The fatty acid tested were: C6 (hexanoic),C8 (octanoic),C10 (decanoic),C12 (lauric),C14 (mystiric).”
# P.aeruginosa = assay type: cell-based, Pseudomonas aeruginosa ATCC 27853
# Method: as §1, §2
# as §2, with “control” for “con-trol”, “h.” for “h. The fatty acid tested were: C6 (hexanoic),C8 (octanoic),C10 (decanoic),C12 (lauric),C14 (mystiric).”
# E.coli = assay type: cell-based, Escherichia coli ATCC 25922
# Method: as §1, §2
# as §2, with “control” for “con-trol”, “h.” for “h. The fatty acid tested were: C6 (hexanoic),C8 (octanoic),C10 (decanoic),C12 (lauric),C14 (mystiric).”
# C.albicans SC5314 = experiment: MIC against filamentous yeast strain, broth microdilution susceptibility test (NCCLS); assay type: cell-based; settings: RPMI-1640, 30° C for 48 h
# Method: as §2, with “Italy)” for “Italy) with MH broth for bacteria and”, “h.” for “h. The fatty acid tested were: C6 (hexanoic),C8 (octanoic),C10 (decanoic),C12 (lauric),C14 (mystiric).”
# (§3) This example was performed on two different strain of C.albicans. Both strain are human clinical isolate recovered from a patient with generalized candidiasis.
# Cytotoxicity, MTT assay = assay type: cell-based; settings: human, A549 cells (lung cancer epithelial cell line), treated for 24-72 h, read-out: LC50 (the source's name)
# Method: In the present invention, cytotoxicity of the lipopeptides against a epithelial cell line was also determined, for example, A549 cells (lung cancer). Cells were cultured in the presence and in the absence of peptides and the damage to the membrane was evaluated by the vital stain MTT.
# The colorimetric 3-(4,5-dimethylthiazol-2-yl)-2,5-diphenyl tetrazolium bromide (MTT) assay was performed to assess the metabolic activity of cells plated into 96-well culture plates (10 5 cell/well) and treated with 0.5-25 µM of in complete medium for 24-72 h. At the end of treatments, fullerenes containing medium were removed and replaced with fresh medium; for the cytotoxic assay, 20 µL stock MTT (5 mg/mL) was added to each well, and cells were then incubated for 4 hr at 37 °C. The converted MTT dye was solubilised with acidic isopropanol (0.04 N HCl in absolute isopropanol). Absorbance was measured at 540 nm and 630 nm using a microplate reader (Automated Microplate Reader EL311, BIO-TEK Instruments, Vermont, USA). All measurements were done in triplicate and each experiment was repeated at least three times.
# C. albicans ATCC 90029 = assay type: cell-based; settings: RPMI-1640, 30° C for 48 h
# Method: as §2, with “Italy)” for “Italy) with MH broth for bacteria and”, “h.” for “h. The fatty acid tested were: C6 (hexanoic),C8 (octanoic),C10 (decanoic),C12 (lauric),C14 (mystiric).”
# as §3
# [1] = Example 1, effect of fatty acid length on RFWR, MH broth, 37° C overnight
structure (smiles),measurement,setting,value
CCCCCCCCCCCC(=O)N[C@@H](CCCNC(=N)N)C(=O)N[C@@H](Cc1ccccc1)C(=O)N[C@@H](Cc1c[nH]c2ccccc12)C(=O)N[C@@H](CCCNC(=N)N)C(N)=O [Lipopeptide 4] (Lauroyl-RFWR-NH2),"Bacteria (MIC, ug/ml) S.aureus",S.aureus,3.125 µg/mL
same,"Bacteria (MIC, ug/ml) P.aeruginosa",P.aeruginosa,12.5 µg/mL
same,"Bacteria (MIC, ug/ml) E.coli",E.coli,12.5 µg/mL
"CCCCCCCCCCCC(=O)N[C@@H](CCCNC(=N)N)C(=O)N[C@H](C(=O)N[C@@H](Cc1c[nH]c2ccccc12)C(=O)N[C@@H](CCCNC(=N)N)C(N)=O)[C@@H](C)CC [Lipopeptide 6, Lau-RIWR-NH2] (Lauroyl-RIWR-NH2)",MIC against S.aureus,S.aureus,1.77 µM
same,MIC against P. aeruginosa,P.aeruginosa,14.7 µM
same,MIC against P. aeruginosa,"P.aeruginosa; MH broth, 37° C overnight",12.5 µg/mL
same,MIC against E. coli,E.coli,7.39 µM
same,MIC against C.albicans SC5314 strain,C.albicans SC5314,12.5 µg/mL
same,CC50,"Cytotoxicity, MTT assay",100 µg/mL and ~118 µM
CCCCCCCCCCCCCC(=O)N[C@@H](CCCNC(=N)N)C(=O)N[C@@H](Cc1ccccc1)C(=O)N[C@@H](Cc1c[nH]c2ccccc12)C(=O)N[C@@H](CCCNC(=N)N)C(N)=O [Lipopeptide 5] (Myristoyl-RFWR-NH2),"Bacteria (MIC, ug/ml) S.aureus",S.aureus,6.125 µg/mL
same,"Bacteria (MIC, ug/ml) P.aeruginosa",P.aeruginosa,50 µg/mL
same,"Bacteria (MIC, ug/ml) E.coli",E.coli,25 µg/mL
"CCCCCCCCCCCC(=O)N[C@@H](CCCNC(=N)N)C(=O)N[C@@H](CCSC)C(=O)N[C@@H](Cc1c[nH]c2ccccc12)C(=O)N[C@@H](CCCNC(=N)N)C(N)=O [Lipopeptide 8, Lau-RMWR-NH2] (Lauroyl-RMWR-NH2)",MIC against C.albicans SC5314 strain,C.albicans SC5314,12.5 µg/mL
CCCCCCCCCCCC(=O)N[C@@H](CCCNC(=N)N)C(=O)N[C@@H](CCCNC(=N)N)C(=O)N[C@@H](Cc1ccccc1)C(=O)N[C@@H](Cc1c[nH]c2ccccc12)C(N)=O [Lipopeptide 14] (Lauroyl-RRFW-NH2),MIC against P. aeruginosa,P.aeruginosa,14.7 µM
same,MIC against P. aeruginosa,"P.aeruginosa; MH broth, 37° C overnight",12.5 µg/mL
same,MIC against E. coli,E.coli,14.7 µM
same,MIC against E. coli,"E.coli; MH broth, 37° C overnight",12.5 µg/mL
CCCCCCCC(=O)N[C@@H](CCCNC(=N)N)C(=O)N[C@@H](Cc1ccccc1)C(=O)N[C@@H](Cc1c[nH]c2ccccc12)C(=O)N[C@@H](CCCNC(=N)N)C(N)=O [Lipopeptide 2] (Octanoyl-RFWR-NH2),"Bacteria (MIC, ug/ml) S.aureus",S.aureus,100 µg/mL
same,"Bacteria (MIC, ug/ml) P.aeruginosa",P.aeruginosa,100 µg/mL
same,"Bacteria (MIC, ug/ml) E.coli",E.coli,100 µg/mL
"CCCCCCCCCCCC(=O)N[C@@H](CCCNC(=N)N)C(=O)N[C@@H](Cc1ccccc1)C(=O)N[C@@H](Cc1c[nH]c2ccccc12)C(=O)N[C@@H](CCCNC(=N)N)C(N)=O [Lipopeptide 3, Lau-RFWR-NH2] (Lauroyl-RFWR-NH2)",MIC against S.aureus,S.aureus,3.66 µM
same,"Bacteria (MIC, ug/ml) S.aureus",S.aureus; [1],12.5 µg/mL
same,MIC against P. aeruginosa,P.aeruginosa,14.7 µM
same,"Bacteria (MIC, ug/ml) P.aeruginosa",P.aeruginosa; [1],50 µg/mL
same,MIC against P. aeruginosa,"P.aeruginosa; MH broth, 37° C overnight",12.5 µg/mL
same,MIC against E. coli,E.coli,7.39 µM
same,"Bacteria (MIC, ug/ml) E.coli",E.coli; [1],25 µg/mL
same,CC50,"Cytotoxicity, MTT assay",100 µg/mL and ~118 µM
"CCCCCCCCCCCC(=O)N[C@@H](CCCNC(=N)N)C(=O)N[C@@H](CCCNC(=N)N)C(=O)N[C@@H](Cc1ccccc1)C(=O)N[C@@H](Cc1c[nH]c2ccccc12)C(N)=O [Lipopeptide 14, Lau-RRFW-NH2] (Lauroyl-RRFW-NH2)",MIC against C.albicans SC5314 strain,C.albicans SC5314,12.5 µg/mL
CCCCCC(=O)N[C@@H](CCCNC(=N)N)C(=O)N[C@@H](Cc1ccccc1)C(=O)N[C@@H](Cc1c[nH]c2ccccc12)C(=O)N[C@@H](CCCNC(=N)N)C(N)=O [Lipopeptide 1] (Hexanoyl-RFWR-NH2),"Bacteria (MIC, ug/ml) S.aureus",S.aureus; [1],>400 µg/mL
same,"Bacteria (MIC, ug/ml) P.aeruginosa",P.aeruginosa; [1],>400 µg/mL
same,"Bacteria (MIC, ug/ml) E.coli",E.coli; [1],>400 µg/mL
N=C(N)NCCC[C@H](NC(=O)[C@H](Cc1c[nH]c2ccccc12)NC(=O)[C@H](Cc1ccccc1)NC(=O)[C@@H](N)CCCNC(=N)N)C(N)=O [Lipopeptide 0] (H-RFWR-NH2; N-terminus and C-terminus assumed),"Bacteria (MIC, ug/ml) S.aureus",S.aureus,>400 µg/mL
same,"Bacteria (MIC, ug/ml) P.aeruginosa",P.aeruginosa,>400 µg/mL
same,"Bacteria (MIC, ug/ml) E.coli",E.coli,>400 µg/mL
"CCCCCCCCCCCC(=O)N[C@@H](CCCNC(=N)N)C(=O)N[C@@H](CCCNC(=N)N)C(=O)N[C@@H](Cc1ccccc1)C(=O)N[C@@H](Cc1c[nH]c2ccccc12)C(=O)N[C@@H](CCCNC(=N)N)C(=O)N[C@@H](CCCNC(=N)N)C(N)=O [Lipopeptide 16, Lau-RRFWRR-NH2] (Lauroyl-RRFWRR-NH2)",MIC against C. albicans ATCC strain,C. albicans ATCC 90029,1.56 µg/mL
